Measurements taken from patent US20080027042A1, “Novel Aminopyridine Derivatives Having Aurora a Selective Inhibitory Action” (priority 2004, published 2008).
pIC50: −log10 of the molar value.

What was measured:
Aurora A = target: T1, Aurora A (Homo sapiens, UniProt O14965); experiment: Aurora A inhibitory action (33P-ATP kinase assay, Kemptide substrate); assay type: biochemical; details: 20 μM ATP, 30° C., 20 minutes
T1 construct: histidine tag (N); made in house; host or cells: Escherichia coli BL21-CodonPlus(DE3)-RIL
T1 sequence (O14965 1-403): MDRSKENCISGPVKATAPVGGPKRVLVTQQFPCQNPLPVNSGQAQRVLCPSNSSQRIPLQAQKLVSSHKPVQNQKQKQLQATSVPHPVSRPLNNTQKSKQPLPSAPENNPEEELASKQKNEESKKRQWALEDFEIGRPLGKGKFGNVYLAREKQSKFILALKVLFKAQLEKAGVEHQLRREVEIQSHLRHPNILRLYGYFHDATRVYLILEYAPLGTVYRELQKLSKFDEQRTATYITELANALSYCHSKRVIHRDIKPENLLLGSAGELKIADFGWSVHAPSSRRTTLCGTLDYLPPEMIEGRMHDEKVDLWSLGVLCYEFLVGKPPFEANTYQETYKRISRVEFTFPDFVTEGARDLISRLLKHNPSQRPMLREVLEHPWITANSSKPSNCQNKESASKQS
In short: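 His-tagged Aurora A expressed in E. coli, Ni-purified; reaction in 50 mM Tris pH 7.4, 15 mM Mg acetate, 0.2 mM EDTA with 100 μM Kemptide, 20 μM ATP plus [γ-33P]ATP, 20 min at 30 °C. Phosphopeptide captured on P81 filters and counted by scintillation; DMSO control.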

[1] = test system: Human cervical cancer cells (HeLa S3); experiment: Cell growth inhibitory effect, WST-8 method; assay type: cell-based; details: 72 h, HeLa S3, three days incubation
Description: Method for Judging the Pharmaceutical Effect Using cells
Fetal calf serum (FCS) was purchased from Moregate Biotech, and DMEM medium was purchased from Invitrogen Corp. WST-8 was purchased from Kishida Chemical Co., Ltd.
(§1) Human cervical cancer cells (HeLa S3) were obtained from the American Type Culture Collection (ATCC).
(§2) c) Method of Judging the Effect
Cells were suspended in a DMEM medium containing 10% FCS, and the cell suspension was dispensed to a 96-well plastic plate at a rate of 750 cells/l 00 microliters per well. The plate was incubated overnight in 5% CO2-95% air at 37° C. A drug was subjected to graded dilution in dimethylsulfoxide and further diluted with a DMEM medium containing 10% FCS. Then, the dilution was dispensed to the plate on which cells had been disseminated, at a rate of 100 microliters per well. The plate was incubated for further three days in 5% CO2-95% air at 37° C. Cell growth after incubation was measured by the WST-8 method (H. Tominaga, et al., Anal. Commun., 36, 47-50 (1999)). Here, the WST-8 method refers to a method in which 20 microliters of a WST-8 reagent solution is added to each well, incubation is conducted at 37° C. for 45 minutes, the plate is stirred, and the amount of formazan produced is measured by a calorimetric method to determine the inhibitory rate of the drug. The concentration for 50% growth inhibition (EC50, IM) of the compound was determined.

[2] = test system: Human cervical cancer cells (HeLa S3); experiment: Effect by combined use of drugs in cells (with paclitaxel), WST-8 method; assay type: cell-based; details: three days; for inhibition at 0.3 µM: HeLa S3, compound 0.3 μM alone; for inhibition at 0.03 µM: HeLa S3, compound 0.03 μM alone; for inhibition at 0.1 µM: HeLa S3, compound 0.1 μM alone
Description: Method for Judging the Effect by Combined Use of Drugs in Cells
Fetal calf serum (FCS) was purchased from Moregate Biotech, DMEM medium from Invitrogen Corp., paclitaxel (tradename: Taxol) from Sigma-Aldrich, Inc., and WST-8 from Kishida Chemical Co., Ltd.
as §1, §2
Cells were suspended in a DMEM medium containing 10% FCS, and the cell suspension was dispensed to two 96-well plastic plates at a rate of 750 cells/100 microliters per well. The plates were incubated overnight in 5% CO2-95% air at 37° C. A drug was subjected to graded dilution in dimethylsulfoxide and flurther diluted with DMSO or with a DMEM medium containing 10% FCS and also containing 2 nM paclitaxel. Then, the dilutions were each dispensed to one of the plates on which cells had been disseminated, at a rate of 100 microliters per well. The final concentration of paclitaxel at this stage was 1 nM. Also, the concentrations in the case of sole administration of the compound according to the invention were 0.03, 0.1, 0.3, 1 and 3 μM. The plates were incubated for further three days in 5% CO2-95% air at 37° C. Cell growth after incubation was measured by the WST-8 method (H. Tominaga, et al., Anal. Commun., 36, 47-50 (1999)). Here, the WST-8 method refers to a method in which 20 microliters of a WST-8 reagent solution is added to each well, incubation is conducted at 37° C. for 45 minutes, the plate is stirred, and the amount of formazan produced is measured by a colorimetric method to determine the inhibitory rate of the drug. The growth inhibitory effects of paclitaxel and of the compound according to the invention were determined, with the value obtained in sole treatment of DMSO being defined as 0%.

Aurora B = target: T2, Aurora B (Homo sapiens, UniProt Q96GD4); experiment: Aurora B inhibitory action (33P-ATP kinase assay, Kemptide substrate); assay type: biochemical; details: 100 μM ATP, 30° C., 20 minutes
T2 construct: histidine tag (N); made in house; host or cells: Escherichia coli BL21-CodonPlus(DE3)-RIL
In short: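 His-tagged Aurora B expressed in E. coli, reacted with 100 μM Kemptide, 100 μM ATP plus [γ-33P]ATP in Tris pH 7.4, 15 mM Mg acetate, 0.2 mM EDTA, 30 °C, 20 min. Peptide captured on P81 filters for scintillation counting; compounds added from DMSO dilutions.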

[3] = HeLa S3, compound 0.3 μM + paclitaxel 1 nM
[4] = Homo sapiens, HeLa S3, 72 h, read-out: Cell growth inhibitory effect by sole administration of the compound of Example (%)
[5] = HeLa S3, compound 0.03 μM + paclitaxel 1 nM
[6] = HeLa S3, compound 0.1 μM + paclitaxel 1 nM

T2 sequence (Q96GD4 whole entry): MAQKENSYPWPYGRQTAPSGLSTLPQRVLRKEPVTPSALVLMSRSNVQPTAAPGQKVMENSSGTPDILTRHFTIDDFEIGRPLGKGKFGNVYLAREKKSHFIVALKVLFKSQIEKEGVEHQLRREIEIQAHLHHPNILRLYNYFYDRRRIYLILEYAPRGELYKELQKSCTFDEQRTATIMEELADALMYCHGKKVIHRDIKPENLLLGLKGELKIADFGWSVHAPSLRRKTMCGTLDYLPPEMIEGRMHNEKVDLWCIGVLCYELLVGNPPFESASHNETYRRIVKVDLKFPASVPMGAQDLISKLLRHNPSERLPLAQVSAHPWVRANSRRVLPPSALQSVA

| SMILES | melting point [°C] | pIC50 (Aurora A) | pIC50 [1] | Cell growth inhibitory effect by combined administration of paclitaxel and the compound of Example (%) [2, 3] [%] | inhibition at 0.3 µM [2, 4] [%] | pIC50 (Aurora B) | Cell growth inhibitory effect by combined administration of paclitaxel and the compound of Example (%) [2, 5] [%] | inhibition at 0.03 µM [2, 4] [%] | Cell growth inhibitory effect by combined administration of paclitaxel and the compound of Example (%) [2, 6] [%] | inhibition at 0.1 µM [2, 4] [%] | Cell growth inhibitory effect by combined administration of paclitaxel and the compound of Example (%) ([2]; HeLa S3, compound 1.0 μM + paclitaxel 1 nM) | inhibition at 1 µM ([2]; Homo sapiens, HeLa S3, 72 h, HeLa S3, compound 1.0 μM alone, read-out: Cell growth inhibitory effect by sole administration of the compound of Example (%)) [%] |
| --- | --- | --- | --- | --- | --- | --- | --- | --- | --- | --- | --- | --- |
| O=C(c1cccc(C(F)(F)F)c1F)N1CCN(Cc2cncc(Nc3cc[nH]n3)n2)CC1 [Example 44, 6-((4-(2-fluoro-3-(trifluoromethyl)benzoyl)piperazin-1-yl)methyl)-N-1H-pyrazol-3-ylpyrazin-2-amine] | 160 to 163 | 9.05 | 5.62 | 86.5 | 7.1 | 5.96 |  |  |  |  |  |  |
| CN(C)C(=O)c1cc(CN2CCN(C(=O)c3cccc(Cl)c3F)CC2)nc(Nc2nccs2)c1.O=C(O)C(F)(F)F [Example 86, 2-((4-(3-chloro-2-fluorobenzoyl)piperazin-1-yl)methyl)-N,N-dimethyl-6-(thiazol-2-ylamino)isonicotinamide trifluoroacetate] |  | 9.18 | 6.29 |  |  | 6.25 | 71.6 | 6.2 |  |  |  |  |
| O=C(c1cccc(Cl)c1F)N1CCN(Cc2cc(CO)cc(Nc3nccs3)n2)CC1 [Example 89, (2-((4-(3-chloro-2-fluorobenzoyl)piperazin-1-yl)methyl)-6-(thiazol-2-ylamino)pyridin-4-yl)methanol] |  | 9.42 | 6.44 |  |  | 6.70 |  |  | 85.8 | 19.1 |  |  |
| COCc1cc(CN2CCN(C(=O)c3cccc(Cl)c3F)CC2)nc(Nc2nccs2)c1 [Example 95, 6-((4-(3-chloro-2-fluorobenzoyl)piperazin-1-yl)methyl)-4-(methoxymethyl)-N-thiazol-2-ylpyridin-2-amine] |  | 9.23 | 6.66 |  |  | 6.60 | 73.5 | 0 |  |  |  |  |
| N#Cc1cc(CN2CCN(C(=O)c3cccc(Cl)c3F)CC2)nc(Nc2nccs2)c1 [Example 104, 2-((4-(3-chloro-2-fluorobenzoyl)piperazin-1-yl)methyl)-6-(thiazol-2-ylamino)isonicotinonitrile] |  | 8.96 | 6.00 | 81.6 | 6.3 | 5.85 |  |  |  |  |  |  |
| Cn1nnnc1-c1cc(CN2CCN(C(=O)c3cccc(Cl)c3F)CC2)nc(Nc2nccs2)c1 [Example 106, 6-((4-(3-chloro-2-fluorobenzoyl)piperazin-1-yl)methyl)-4-(1-methyl-1H-tetrazol-5-yl)-N-thiazol-2-ylpyridin-2-amine] |  | 9.06 | 6.40 |  |  | 6.40 |  |  | 76.7 | 6.1 |  |  |
| Cn1nnc(-c2cc(CN3CCN(C(=O)c4cccc(Cl)c4F)CC3)nc(Nc3nccs3)c2)n1 [Example 107, 6-((4-(3-chloro-2-fluorobenzoyl)piperazin-1-yl)methyl)-4-(2-methyl-2H-tetrazol-5-yl)-N-thiazol-2-ylpyridin-2-amine] |  | 9.49 | 6.68 |  |  | 6.72 | 74.1 | 11.5 |  |  |  |  |
| O=C(c1cccc(Cl)c1F)N1CCN(Cc2cc(-c3ncn[nH]3)cc(Nc3nccs3)n2)CC1 [Example 108, 6-((4-(3-chloro-2-fluorobenzoyl)piperazin-1-yl)methyl)-N-thiazol-2-yl-4-(1H-1,2,4-triazol-5-yl)pyridin-2-amine] |  | 9.23 | 5.92 |  |  | 6.10 |  |  |  |  | 86.4 | 17.2 |
